Assay results as given in PMC8957246, “Synthesis and diverse biological activity profile of triethylammonium isatin-3-hydrazones” (ADMET & DMPK, 2022).

Key:
Format in all cases: cell-based
[1] = test system: platelets (ADP-induced aggregation); assay: Platelet aggregation (Born method), ADP-induced; conditions: Homo sapiens, ADP 20 μg/mL, final concentration 2×10^–3 mol/L, median (25-75 percentiles), read-out: Platelets aggregation, % of control, ADP
Method: (§1) The in vitro experiments were performed using the blood of healthy male donors aged 18-24 years (total 54 donors). The study was approved by the Ethics Committee of Federal State Budgetary Educational Institution of Higher Education at the Bashkir State Medical University of the Ministry of Health of Russian Federation (No.2 dated 17.10.2012). Informed consent was obtained from all participants before blood sampling. The blood was collected from the cubital vein using the system of vacuum blood collection BD Vacutainer® (Becton, Dickinson and Company, USA). A 3.8 % sodium citrate solution in a 9:1 ratio was used as a venous blood stabiliser. The study of the effect on platelet aggregation was performed using the Born method using the aggregometer «AT-02» (SPC Medtech, Russia). The assessment of antiplatelet activity of the studied compounds and reference preparations was started with the final concentration of 2×10^–3 mol/L. Adenosine diphosphate (ADP; 20 μg/mL) and collagen (5 mg/mL) manufactured by Tehnologia-Standart Company, Russia, were used as inducers of aggregation. The study on the anticoagulant activity was performed by standard recognised clotting tests using the optical two-channel automatic analyser of blood coagulation Solar CGL 2110 (CJSC SOLAR, Belarus). The following parameters were studied: activated partial thromboplastin time (APTT), prothrombin time (PT) and fibrinogen concentrations according to the Clauss method. The determination of anticoagulant activity of the studied compounds and reference preparation was performed in a concentration of 5×10^–4 g/mL using the reagents manufactured by Tehnologia-Standart Company (Barnaul, Russia). The results of the study were processed using the statistical package Statistica 10.0 (StatSoft Inc, USA). The Shapiro–Wilk’s test was used to check the normality of actual data distribution. The form of distribution of the data obtained differed from the normal one; therefore, non-parametric methods were used for further analysis. The data were presented as medians and 25 and 75 percentiles. Analysis of variance was conducted using Kruskal–Wallis test. A p value of 0.05 was considered statistically significant.

[2] = test system: Enterococcus faecalis ATCC 29212; assay: Antimicrobial activity, serial dilution (MIC/MBC), Ef; conditions: ATCC29212
Method: The antimicrobial activity of the test compounds was determined by the serial dilution technique in Muller Hinton Broth 2 and in Sabouradu broth for fungi. The cultures used for testing included Gram-positive bacteria: Staphylococcus aureus ATCC 6538P FDA 209P, Bacillus cereus ATCC 10702 NCTC 8035, Enterococcus faecalis ATCC 29212; Gram-negative bacteria: Escherichia coli ATCC 25922, Pseudomonas aeruginosa ATCC 9027, and fungi: Trichophyton mentagrophytes var. gypseum 1773, and Candida albicans ATCC 10231; methicillin-resistant strains of S. aureus (MRSA) was obtained from hospital patients with chronic tonsillitis in the Republican Clinical Hospital (Kazan, Russia). The bacterial load was 3.0 × 10^5 cfu/ml. The fungi load was 2.0 × 10^3 cfu/ml. The results were recorded every 24 h for 5-7 days. Cultures were incubated at 37 °C. The experiment was repeated three times. […] The minimum inhibitory concentration (MIC) was defined as the minimum concentration of a compound that inhibits the growth of the corresponding test microorganism. The growth of bacteria, as well as the absence of the growth due to the bacteriostatic action of compounds, were recorded.
Synthesized compounds were further evaluated for antimicrobial activity against test microorganisms: Staphylococcus aureus ATCC 209p (Sa), Bacillus cereus ATCC 8035 (Bc), Escherichia coli CDC F-50 (Ec), Enterococcus faecalis (Ef), Pseudomonas aeruginosa ATCC 9027, Aspergillus niger BKMF-1119, Trichophyton mentagrophytes var. gypseum 1773, and Candida albicans 855-653 including methicillin-resistant strains of S. aureus (MRSA 1 and MRSA 2). The minimum inhibitory (MIC) and minimum bactericidal (MBC) concentrations of ammonium salts were determined against these pathogens (Table 1). Due to the lack of activity of compounds 3a-g against Gram-negative bacterial strains and some fungi, the corresponding data are not shown.

[3] = test system: platelets (collagen-induced aggregation); assay: Platelet aggregation (Born method), collagen-induced; conditions: Homo sapiens, collagen 5 mg/mL, final concentration 2×10^–3 mol/L, median (25-75 percentiles), read-out: Platelets aggregation, % of control, Collagen
Method: as §1

Structure (SMILES) | inhibition at 2000 µM [1] | MBC [2] | MIC [2] | inhibition at 2000 µM [3]
CC[N+](CC)(CC)CC(=O)N/N=C1\C(=O)N(Cc2cc(C(C)(C)C)c(O)c(C(C)(C)C)c2)c2ccccc21 [Compound 3a, 2-(2-(1-(3,5-Di-tert-butyl-4-hydroxybenzyl)-2-oxoindolin-3-ylidene)hydrazinyl)-N,N,N-triethyl-2-oxoethanammonium bromide] | 10.5% | > 500 µM | > 500 µM | 9.4%
CCc1cccc2c1N(Cc1cc(C(C)(C)C)c(O)c(C(C)(C)C)c1)C(=O)/C2=N\NC(=O)C[N+](CC)(CC)CC [Compound 3c, 2-(2-(1-(3,5-Di-tert-butyl-4-hydroxybenzyl)-7-ethyl-2-oxoindolin-3-ylidene)hydrazinyl)-N,N,N-triethyl-2-oxoethanammonium bromide] | 13.7% | > 500 µM | > 500 µM | 12.5%
CC[N+](CC)(CC)CC(=O)N/N=C1\C(=O)N(Cc2cc(C(C)(C)C)c(O)c(C(C)(C)C)c2)c2c1ccc(C)c2C [Compound 3d, 2-(2-(1-(3,5-Di-tert-butyl-4-hydroxybenzyl)-6,7-dimethyl-2-oxoindolin-3-ylidene)hydrazinyl)-N,N,N-triethyl-2-oxoethanammonium bromide] | 9% | 49.6 ± 3.9 µM | 49.6 ± 3.9 µM | 8.5%
CC[N+](CC)(CC)CC(=O)N/N=C1\C(=O)N(Cc2cc(C(C)(C)C)c(O)c(C(C)(C)C)c2)c2cccc(Br)c21 [Compound 3e, 2-(2-(1-(3,5-Di-tert-butyl-4-hydroxybenzyl)-4-bromo-2-oxoindolin-3-ylidene)hydrazinyl)-N,N,N-triethyl-2-oxoethanammonium bromide] | 0.5% | > 500 µM | > 500 µM | 2.4%
CC[N+](CC)(CC)CC(=O)N/N=C1\C(=O)N(Cc2cc(C(C)(C)C)c(O)c(C(C)(C)C)c2)c2ccc([N+](=O)[O-])cc21 [Compound 3f, 2-(2-(1-(3,5-Di-tert-butyl-4-hydroxybenzyl)-5-nitro-2-oxoindolin-3-ylidene)hydrazinyl)-N,N,N-triethyl-2-oxoethanammonium bromide] | 4.6% | > 500 µM | > 500 µM | 4.3%
CC[N+](CC)(CC)CC(=O)N/N=C1\C(=O)N(Cc2cc(C(C)(C)C)c(O)c(C(C)(C)C)c2)c2c(Br)cc(Cl)cc21 [Compound 3g, 2-(2-(1-(3,5-Di-tert-butyl-4-hydroxybenzyl)-5-chloro-7-bromo-2-oxoindolin-3-ylidene)hydrazinyl)-N,N,N-triethyl-2-oxoethanammonium bromide] | 10.2% | > 500 µM | > 500 µM | 8.9%
